Measurements reported in article PMC7116837 (Nature microbiology, 2021).

How the values were obtained:
[1] = target: T1, VSGsur (Variant Surface Glycoprotein VSGsur) (Trypanosoma brucei, UniProt A0A291L8F4); experiment: crystal structure; type: binding
T1 sequence (A0A291L8F4 30-408): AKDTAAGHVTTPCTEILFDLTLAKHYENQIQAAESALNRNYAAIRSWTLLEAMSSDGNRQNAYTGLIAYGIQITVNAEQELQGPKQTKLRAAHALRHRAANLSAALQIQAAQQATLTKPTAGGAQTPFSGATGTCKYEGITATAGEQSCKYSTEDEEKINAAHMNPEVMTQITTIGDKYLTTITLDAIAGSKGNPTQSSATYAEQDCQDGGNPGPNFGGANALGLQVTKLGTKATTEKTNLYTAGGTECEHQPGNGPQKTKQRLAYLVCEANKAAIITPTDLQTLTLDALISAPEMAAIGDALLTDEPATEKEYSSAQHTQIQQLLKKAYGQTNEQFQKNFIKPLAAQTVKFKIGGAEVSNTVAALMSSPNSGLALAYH

[2] = target: T2, VSGsur (Variant Surface Glycoprotein VSGsur) (Trypanosoma brucei, UniProt A0A291L8F4); experiment: ITC and […] Å co-crystal structure; type: binding
T2 sequence (A0A291L8F4 30-475): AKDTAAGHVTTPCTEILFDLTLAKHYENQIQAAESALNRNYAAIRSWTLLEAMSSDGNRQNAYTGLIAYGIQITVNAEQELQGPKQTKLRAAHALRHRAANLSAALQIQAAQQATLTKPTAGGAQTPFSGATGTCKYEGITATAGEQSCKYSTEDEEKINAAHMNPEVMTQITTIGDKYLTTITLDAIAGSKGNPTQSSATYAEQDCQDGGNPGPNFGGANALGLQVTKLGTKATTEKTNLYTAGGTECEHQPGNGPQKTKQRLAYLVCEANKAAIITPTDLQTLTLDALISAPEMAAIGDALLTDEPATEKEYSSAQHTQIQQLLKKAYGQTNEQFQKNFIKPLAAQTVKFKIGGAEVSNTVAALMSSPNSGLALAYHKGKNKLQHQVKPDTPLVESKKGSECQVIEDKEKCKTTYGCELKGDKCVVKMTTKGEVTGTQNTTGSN

[3] = target: Variant Surface Glycoprotein VSG13, N-terminal domain (T. brucei brucei Lister 427); experiment: crystal structure
[4] = target: Variant Surface Glycoprotein VSGsur, N-terminal domain (T. brucei rhodesiense); experiment: crystal structure

Nc1c(I)c(C(=O)O)c(I)c(C(=O)O)c1I [I3C, 5-amino-2,4,6-triiodoisophthalic acid]
crystal structure (50 mM overnight soak, phasing compound) [1]: occupies the same position as the suramin benzene groups, stacking similarly with H122

Cc1ccc(C(=O)Nc2ccc(S(=O)(=O)O)c3cc(S(=O)(=O)O)cc(S(=O)(=O)O)c23)cc1NC(=O)c1cccc(NC(=O)Nc2cccc(C(=O)Nc3cc(C(=O)Nc4ccc(S(=O)(=O)O)c5cc(S(=O)(=O)O)cc(S(=O)(=O)O)c45)ccc3C)c2)c1 [suramin]
Kd [2]: 234 ± 28 nM

Variant Surface Glycoprotein VSG13, N-terminal domain (domain or fragment)
stoichiometry N [3]: 2

Variant Surface Glycoprotein VSGsur, N-terminal domain (domain or fragment)
stoichiometry N [4]: 2
